Measurements published in paper PMC11157103, “Exploration of morpholine-thiophene hybrid thiosemicarbazones for the treatment of ureolytic bacterial infections via targeting urease enzyme: Synthesis, biochemical screening and computational analysis” (Frontiers in Chemistry, 2024).
Where two headings read alike, the source gives them in different places.

What was measured:
[1] = target: jack bean urease (Canavalia ensiformis, UniProt P07374); experiment: biochemical; type: biochemical; details: for fold stronger inhibitory potential than thiourea: relative to thiourea IC50
Method: The indophenol method with a little modification was used to determine the urease inhibitory activity of synthetic compounds (5a-i) ([Weatherburn, 1967]; [Yaseen et al., 2016]). Thiourea was used as a standard inhibitor. The assay mixture was comprised of 40 μL of buffer (100 mmol/L urea, 0.01 mol/L K2HPO4, 1 mmol/L EDTA and 0.01 mol/L […], pH 8.2), 10 μL of jack bean urease (5 U/mL) and 10 μL of test compound (1 mM). The reaction mixture was incubated for 30 min with 10 μL urea (1 mM) at 37 °C in 96-well plate. The phenol reagent (40 μL, 1% w/v phenol, 0.005% w/v sodium nitroprusside) and alkali reagent (40 μL, 0.5% w/v NaOH, 0.1% active chloride NaOCl) were added to each well and after 10 min of incubation at 37 °C, the absorbance was measured at 630 nm using a microplate reader (Bio-Tek ELx 800™, Instruments, Inc. United States). The experiments to determine the inhibitory activity of compounds were performed in triplicates. The percentage inhibition was calculated by using the formula given below. Inhibition %=100 – Absorbance of the test compound/Absorbance of the control×100
Compounds showing >50% inhibition against urease were further evaluated for the determination of IC50 values at various concentrations (0.1, 0.3, 1, 3, 10, 30, 100, 300, 1,000 μM) against jack bean urease. The experiments were performed in triplicate. IC50 values were calculated by using the non-linear curve fitting program PRISM 5.0 (GraphPad, San Diego, California, United States) to analyze the results.

[2] = target: urease (Canavalia ensiformis, UniProt P07374); experiment: Kinetics analysis (Michaelis-Menten, Lineweaver-Burk plot); type: biochemical, jack bean; details: urea 25-150 mM, inhibitor 0, 1.9, 3.8, 5.7 μM
Method: These experiments helped in the assessment of K m and V max values to predict the mechanism of urease inhibition by plotting reciprocal of reaction rate 1/V (y-axis) against reciprocal of substrate concentrations 1/[S] (x-axis).
The rate of enzyme inhibition was accessed across numerous concentrations of substrate (25, 50, 100, 150 mM) and compound 5g (0, 1.9, 3.8, 5.7 μM) against urease. Afterwards, the data was plotted to obtain the Lineweaver-Burk plot by using GraphPad Prism version 10.2.1.

jack bean urease, sequence (P07374 whole entry, looked up): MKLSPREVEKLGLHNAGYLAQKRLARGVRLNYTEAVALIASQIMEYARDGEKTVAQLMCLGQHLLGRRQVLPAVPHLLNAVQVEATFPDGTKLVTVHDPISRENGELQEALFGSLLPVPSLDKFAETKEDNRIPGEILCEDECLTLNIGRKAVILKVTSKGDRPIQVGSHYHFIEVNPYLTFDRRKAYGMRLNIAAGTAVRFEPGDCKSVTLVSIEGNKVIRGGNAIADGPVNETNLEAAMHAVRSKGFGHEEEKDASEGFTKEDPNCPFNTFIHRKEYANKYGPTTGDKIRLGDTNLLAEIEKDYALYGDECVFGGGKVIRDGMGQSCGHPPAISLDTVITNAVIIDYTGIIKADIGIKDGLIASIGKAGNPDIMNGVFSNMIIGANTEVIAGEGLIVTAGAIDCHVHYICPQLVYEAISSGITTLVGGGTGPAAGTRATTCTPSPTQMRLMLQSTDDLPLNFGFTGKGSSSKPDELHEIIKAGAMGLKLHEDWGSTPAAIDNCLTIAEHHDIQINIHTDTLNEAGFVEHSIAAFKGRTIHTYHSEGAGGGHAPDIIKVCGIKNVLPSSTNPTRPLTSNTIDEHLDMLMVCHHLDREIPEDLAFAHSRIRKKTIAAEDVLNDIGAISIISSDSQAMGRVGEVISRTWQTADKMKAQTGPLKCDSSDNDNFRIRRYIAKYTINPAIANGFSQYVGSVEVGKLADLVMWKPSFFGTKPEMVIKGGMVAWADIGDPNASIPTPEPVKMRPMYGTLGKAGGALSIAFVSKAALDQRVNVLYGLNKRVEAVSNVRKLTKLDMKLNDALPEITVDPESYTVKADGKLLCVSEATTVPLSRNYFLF
urease, sequence (P07374 whole entry, looked up): as above

Structure (SMILES) | IC50 [1] [µM] | fold stronger inhibitory potential than thiourea [1] [fold] | melting point [°C] | mechanism of urease inhibition [2] | IC50 ([1]; jack bean urease, indophenol method, triplicate, read-out: Urease inhibition IC50 ± SEM) [µM]
S=C(NCCN1CCOCC1)NN=Cc1cccs1 [Compound 5a, N-(2-morpholinoethyl)-2-(thiophen-2-ylmethylene)hydrazinecarbothioamide] | 4.94 ± 2.7 | 4.5 | – | – | –
CC(=NNC(=S)NCCN1CCOCC1)c1cccs1 [Compound 5b, N-(2-morpholinoethyl)-2-(1-(thiophen-2-yl)ethylidene)hydrazinecarbothioamide] | 4.96 ± 3 | – | 142 to 144 | – | –
CC(=NNC(=S)NCCN1CCOCC1)c1cc(C)cs1 [Compound 5c, 2-(1-(4-Methylthiophen-2-yl)ethylidene)-N-(2-morpholinoethyl)hydrazinecarbothioamide] | 4 ± 2.4 | – | 112 to 114 | – | –
CC(=NNC(=S)NCCN1CCOCC1)c1ccc(C)s1 [Compound 5d, 2-(1-(5-Methylthiophen-2-yl)ethylidene)-N-(2-morpholinoethyl)hydrazinecarbothioamide] | 4.6 ± 2.6 | 4.8 | 156 to 158 | – | –
CC(=NNC(=S)NCCN1CCOCC1)c1sccc1Cl [Compound 5e, 2-(1-(3-Chlorothiophen-2-yl)ethylidene)-N-(2-morpholinoethyl)hydrazinecarbothioamide] | 4.81 ± 1.5 | – | 116 to 118 | – | –
CC(=NNC(=S)NCCN1CCOCC1)c1sccc1Br [Compound 5f, 2-(1-(3-Bromothiophen-2-yl)ethylidene)-N-(2-morpholinoethyl)hydrazinecarbothioamide] | 5.77 ± 0.7 | – | 124 to 126 | – | –
CC(=NNC(=S)NCCN1CCOCC1)c1ccc(Cl)s1 [Compound 5g, 2-(1-(5-Chlorothiophen-2-yl)ethylidene)-N-(2-morpholinoethyl)hydrazinecarbothioamide] | 3.8 ± 1.9 | – | 148 to 150 | uncompetitive inhibition | –
CC(=NNC(=S)NCCN1CCOCC1)c1ccc(Br)s1 [Compound 5h, 2-(1-(5-Bromothiophen-2-yl)ethylidene)-N-(2-morpholinoethyl)hydrazinecarbothioamide] | 3.98 ± 2.2 | – | 148 to 150 | – | –
CC(=NNC(=S)NCCN1CCOCC1)c1ccc([N+](=O)[O-])s1 [Compound 5i, N-(2-morpholinoethyl)-2-(1-(5-nitrothiophen-2-yl)ethylidene)hydrazinecarbothioamide] | 3.9 ± 2.7 | – | 192 to 194 | – | –
NC(N)=S [Thiourea, reference compound] | – | – | – | – | 22.31 ± 0.03
